The supplement of paper PMC10307832

Each cell line was assayed with Cc1nc(NC(=O)N2CCC[C@H]2C(N)=O)sc1-c1ccnc(C(C)(C)C(F)(F)F)c1 [Alpelisib] + Cc1nc(Nc2ncc(C(=O)Nc3c(C)cccc3Cl)s2)cc(N2CCN(CCO)CC2)n1 [Dasatinib] (partner 0.075 µM) (assay: relative viability (nuclei count vs DMSO), 5 days (fraction); higher = more cells survive). Conditions: first compound 0.04 µM.
Procedure, shortened: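 Lung cancer cell lines were pin-tool dosed in 1536-well plates on the day after seeding, with either a lone drug or a fixed anchor-drug dose plus five library-drug doses (not always all listed) in √10 steps. Nuclei were counted on 4× images after 5 days. Relative viability is the ratio of treated-well to vehicle-well nuclei counts, with each value a median of duplicate plates.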

Cell Line	relative viability
NCI-H838	0.275
A-427	0.618
NCI-H2009	0.309
EKVX	0.556
NCI-H2087	0.959
NCI-H1734	0.42
LCLC-103H	0.45
LU99A	0.446
NCI-H460	0.42
NCI-H2170	0.535
SK-LU-1	0.141
COR-L23	0.436
HCC-15	0.559
NCI-H1944	0.208
NCI-H1563	0.474
EMC-BAC-2	0.31

Cell Line	relative viability
NCI-H1792	0.723
LC-2-ad	0.596
NCI-H2085	0.275
NCI-H647	0.228
HARA	0.291
NCI-H3122	0.806
NCI-H358	0.157
CAL-12T	0.34
COR-L 105	0.301
LCLC-97TM1	0.843
NCI-H520	0.184
NCI-H2228	0.519
NCI-H23	0.818
HCC-827	0.378
NCI-H2347	0.298
LXF-289	0.257

Same assay, conditions: first compound 0.1265 µM

Cell Line	relative viability
NCI-H838	0.375
A-427	0.579
NCI-H2009	0.281
EKVX	0.572
NCI-H2087	0.883
LCLC-103H	0.442
LU99A	0.482
NCI-H460	0.484
NCI-H2170	0.519
SK-LU-1	0.149
COR-L23	0.392
HCC-15	0.587
NCI-H1944	0.217
NCI-H1563	0.395
EMC-BAC-2	0.291
NCI-H1792	0.83

Cell Line	relative viability
LC-2-ad	0.448
NCI-H2085	0.225
NCI-H647	0.163
HARA	0.281
NCI-H3122	0.653
NCI-H358	0.176
CAL-12T	0.275
COR-L 105	0.444
LCLC-97TM1	0.75
NCI-H520	0.218
NCI-H2228	0.478
NCI-H23	0.65
HCC-827	0.427
NCI-H2347	0.3
LXF-289	0.164

Same assay, conditions: first compound 0.4 µM

Cell Line	relative viability
NCI-H838	0.296
A-427	0.704
NCI-H2009	0.353
EKVX	0.544
NCI-H2087	1.12
NCI-H1734	0.394
LCLC-103H	0.468
LU99A	0.554
NCI-H460	0.457
NCI-H2170	0.506
SK-LU-1	0.133
COR-L23	0.535
HCC-15	0.56
NCI-H1944	0.203
NCI-H1563	0.434
EMC-BAC-2	0.28

Cell Line	relative viability
NCI-H1792	0.736
LC-2-ad	0.63
NCI-H2085	0.265
NCI-H647	0.214
HARA	0.215
NCI-H3122	0.624
NCI-H358	0.164
CAL-12T	0.483
COR-L 105	0.346
LCLC-97TM1	0.855
NCI-H520	0.153
NCI-H2228	0.414
NCI-H23	0.702
HCC-827	0.296
NCI-H2347	0.316
LXF-289	0.177

Same assay, conditions: first compound 1.265 µM

Cell Line	relative viability
NCI-H838	0.228
A-427	0.559
NCI-H2009	0.223
EKVX	0.407
NCI-H2087	0.691
NCI-H1734	0.244
LCLC-103H	0.418
LU99A	0.409
NCI-H460	0.245
NCI-H2170	0.483
SK-LU-1	0.128
COR-L23	0.278
HCC-15	0.379
NCI-H1944	0.163
NCI-H1563	0.386
EMC-BAC-2	0.228

Cell Line	relative viability
NCI-H1792	0.485
LC-2-ad	0.23
NCI-H2085	0.263
NCI-H647	0.0992
HARA	0.174
NCI-H3122	0.487
NCI-H358	0.112
CAL-12T	0.27
COR-L 105	0.273
LCLC-97TM1	0.641
NCI-H520	0.174
NCI-H2228	0.279
NCI-H23	0.535
HCC-827	0.234
NCI-H2347	0.313
LXF-289	0.121

Same assay, conditions: first compound 4 µM

Cell Line	relative viability
NCI-H838	0.215
A-427	0.638
NCI-H2009	0.198
EKVX	0.266
NCI-H2087	0.56
NCI-H1734	0.208
LCLC-103H	0.359
LU99A	0.379
NCI-H460	0.174
NCI-H2170	0.396
SK-LU-1	0.0997
COR-L23	0.292
HCC-15	0.31
NCI-H1944	0.144
NCI-H1563	0.375
EMC-BAC-2	0.208

Cell Line	relative viability
NCI-H1792	0.336
LC-2-ad	0.225
NCI-H2085	0.215
NCI-H647	0.123
HARA	0.155
NCI-H3122	0.295
NCI-H358	0.121
CAL-12T	0.232
COR-L 105	0.26
LCLC-97TM1	0.566
NCI-H520	0.149
NCI-H2228	0.175
NCI-H23	0.418
HCC-827	0.233
NCI-H2347	0.273
LXF-289	0.114
